Reference: patent US11197873B2, “Azolium salts for treatment of non-muscle invasive bladder cancer” (The University of Akron, priority 2019, dated 2021)

Assays:
Assay type in all cases: cell-based, human
[1] = system: bladder cancer cell lines; assay: CellTiter-Glo assay, growth inhibition at 1 h exposure
Procedure: (§1) Select bladder cancer cell lines were seeded at 10,000 cells/well in black-walled 96 well plates and incubated for 24 h. Cells were treated with compound in their respective media (as recommended by ATCC) at concentrations of 500 to 7.8 μM dissolved in two-fold dilution increments or vehicle for 1 h, followed by replacement of treatment media with normal growth media. After 24 h, plates with cells were incubated at room temperature for 30 min, followed by the addition of 20 μL of CellTiter-Glo® luminescent cell viability assay reagent (Promega) and mixing. After 2 min of incubation at room temperature, luminescence for each plate was measured using IVIS. Relative survival for each treatment group was calculated using vehicle control. All treatments were performed in quadruplicate.

[2] = system: RT112 cell line; assay: Relative survival at varying concentration and exposure time, 24 h recovery; settings: 5 min exposure time
Procedure: (§2) FIG. 4 provides the relative survival of RT4 cells in part A and RT112 cells in part B that were treated with varying concentrations of III for different exposure times followed by a 24 h recovery.
as §1, with “Cells were treated with compound in their respective media (as recommended by ATCC) at concentrations of 500 to 7.8 μM dissolved in two-fold dilution increments or vehicle for 1 h, followed by replacement of treatment media with normal growth media.” left out

[3] = system: RT4 cell line; assay: as above; settings: 5 min exposure time
Procedure: as §2, §1

- GI50 compared with both triphenylphosphonium compounds [1]: extremely lower GI50 concentrations
SMILES: CN1/C(=C/C=C/c2n(Cc3ccc4ccccc4c3)c(Cl)c(Cl)[n+]2Cc2ccc3ccccc3c2)Oc2ccccc21.[Cl-] [III, 4,5-dichloro-2-((1E,3Z)-3-(3-methylbenzoxazol-2(3H)-ylidene)prop-1-en-1-yl)-1,3-bis(naphthalen-2-ylmethyl)-1H-imidazolium chloride]
- concentration that inhibits cell survival [2]: 40 µM
- concentration that inhibits cell survival [3]: 10 µM
